Experimental data taken from patent US20070110726A1, “Rust disease control by Aphanocladium album and/or Beauveria brongniartii” (priority 2005, published 2007).
Starred links: 1 amine or outer side, 2 acyl side, 3 side chain; linkers in the order of their positions; H or OH if unused. Positions of bridges follow the written chain, without caps; N, C: chain ends. Non-standard residues stand in square brackets, D forms with d. Residues, ends and D or L forms follow the SMILES beside them. Chains are numbered I, II in the order given. Actinocin(9to1) = Cc1c2oc3c(C)ccc(C(=O)[*:1])c3nc-2c(C(=O)[*:2])c(N)c1=O; NMeV = CN[C@H](C(=O)O)C(C)C; Sar = CNCC(=O)O

How the values were obtained:
[1] = tested on: K-562 cells; test: MTS cytotoxicity assay; type: cell-based; conditions: 3 days exposure
Source text: di-Methylthiozol Tetrazolium (MTT assay): Proliferation assays are used in cell biology for the study of growth factors, cytokines and cytotoxic agents. There are several ways to measure the number of cells in a proliferation assay. MTT assay is a rapid and convenient method of determining viable cells in proliferation, cell attachment, chemotaxis and apoptosis assays.
di-Methylthiozol Tetrazolium Salt (MTS assay): MTS assay is a rapid and convenient method of determining viable cells in proliferation or cytotoxic assays. The use of this analog of MTT, provides a stable reaction over time. MTS assay is based on the cellular conversion of a tetrazolium salt into a formozan product that is soluble in tissue culture media and can easily be detected using a 96-well plate reader. This conversion is presumably accomplished by NADPH or NADH produced by dehydrogenases enzymes present in metabolically active cells. MTS is preferred over MTT because the MTS formazan product is soluble in tissue culture medium. In addition the MTS assay require fewer steps than MTT assay. Consequently, we have used MTS for our testing. MTS assay-Method: K-562 (typical cancer cell line used for cytotoxicity assays) cells were seeded in 96-well plates at a concentration of 2.5×10^4 cells/ml. Oosporein and Actinomycin D (a known cytotoxic compound) were prepared in 10% DMSO and added to cells the next day (final DMSO concentration was 0.5%). Oosporein was assessed at a final concentration on the cells of 100, 50, 25, 12.5, 6.25 and 3.125 μg/ml (2-fold dilutions) in quadruplicate. A known toxic agent, Actinomycin D, was added at 100, 20, 4, 0.8 and 0.16 ng/ml (5-fold dilutions). After 3 days exposure to test compound or controls, MTS reagent was prepared and added to the cells. After 3 hours, the accumulation of formazan product was determined by measuring the absorbance at 490 nm. The background absorbance of the cells detected at 630 nm was then subtracted from the initial 490 nm reading. Percent toxicity was determined using the following formula: [formula] [formula] […]

[2] = tested on: strain NC of Puccinia coronata; test: Greenhouse experiment, pure compound Oosporein sprayed on inoculated oat seedlings (telia induction); type: in vivo, Puccinia coronata on oat (cv. Brooks) seedlings; conditions: table title strain NC (method text: strain MN); for Percentage of plants with telia: oat cv. Brooks seedlings, pure compound at 100 μg/ml applied four days after inoculation, mean of five replicates; for Telia intensity Rating: scale 0 = healthy to 3.0 = >15% of leaf area with telia, pure compound 100 μg/ml
Protocol: iv) Both crude extracts and fractions were tested at 10 mg/ml and the pure compound at 100 μg/ml
1.c. Greenhouse Experiments with the Pure Compound, Oosporein Isolated from of A. album (Aa 100 Isolate):
The pure compound (Oosporein) isolated from A. album (Aa 100) dissolved in 500 μl of DMSO and 9.5 ml of sterile distilled water (SDW) with 20 μl of Tween 80. The controls consisted of 500 μl of DMSO in 9.5 ml of SDW with 20 μl of Tween 80. and 10 ml of SDW with 20 μl of Tween 80. Ten ml of each treatment were atomized on 2-3 week-old, oat seedlings previously inoculated with strain MN of Puccinia coronata. Treatments were applied four days after inoculation when flecking symptoms of infection were present, but before uredia were observed (FIG. 1). There were five replicates of each treatment arranged in a randomized complete block design.

[3] = tested on: rusts; test: Conversion of infective urediniospores to non-infective teliospores in rusts

Row | SMILES | Percent toxicity on K-562 cells ([1]; 100 ng/ml) | Percentage of plants with telia [2] | Percentage of plants with telia ([2]; listed as Ooosporein) | Telia intensity Rating [2] | Telia intensity Rating ([2]; listed as Ooosporein) | toxicity on K-562 cells ([1]; 25 μg/ml or less) | toxicity on K-562 cells ([1]; 100 and 50 μg/ml) | time to conversion of infective urediniospores to non-infective teliospores ([3]; after application) | conversion of infective urediniospores to non-infective teliospores ([3]; oat, bareley, wheat, pine and soybean rust)
1 | Cc1c2oc3c(C)ccc(C(=O)N[C@@H]4C(=O)N[C@H](C(C)C)C(=O)N5CCC[C@H]5C(=O)N(C)CC(=O)N(C)[C@@H](C(C)C)C(=O)O[C@@H]4C)c3nc-2c(C(=O)N[C@@H]2C(=O)N[C@H](C(C)C)C(=O)N3CCC[C@H]3C(=O)N(C)CC(=O)N(C)[C@@H](C(C)C)C(=O)O[C@@H]2C)c(N)c1=O [Actinomycin D, reference compound] (I: T[dV]P[Sar][NMeV] / II: T[dV]P[Sar][NMeV]; ester I:1-I:C, II:1-II:C; linker I:N-II:N via Actinocin(9to1)) | ~100% | – | – | – | – | – | – | – | –
2 | CC1=C(O)C(=O)C(C2=C(O)C(=O)C(C)=C(O)C2=O)=C(O)C1=O [Oosporein] | – | 83% | higher percentage of plants with telia | 8.2 | greater intensity of telia | no toxicity whatsoever | very mild toxicity | with in three days of application | convert infective urediniospores to non-infective teliospores
